This is an account of results in the supplement of paper PMC7806825.

This data set has as its system McpC ligand-binding domain (Salmonella Typhimurium SL1344). Briefly: protein melting temperature (Tm) in presence of compound (degrees C); higher = more thermal stabilisation (possible ligand binding). The conditions noted are these: compound stock concentration: 10-20 mM, 2 uL in 10 uL reaction.

For the compound `C[C@H](N)C(=O)O` [L-Alanine], the protein melting temperature runs as follows: (Biolog plate: PM01) 44.8; (Biolog plate: PM03B) 45.6; (Biolog plate: PM05) 44.9.

With `O[C@@H]1[C@@H](O)[C@@H](O)CO[C@H]1O` [L-Arabinose], the protein melting temperature (Biolog plate: PM01) was found to be 44.5.

For the compound `OC[C@H](O)C(O)[C@@H](O)CO` [L-Arabitol], under “Biolog plate: PM02A”, the protein melting temperature is 43.8.

Take `N=C(N)NCCC[C@H](N)C(=O)O` [L-Arginine]: the protein melting temperature reads like this: (Biolog plate: PM02A) 44.2; (Biolog plate: PM03B) 45.4; (Biolog plate: PM05) 44.6.

Regarding `NC(=O)C[C@H](N)C(=O)O` [L-Asparagine], the protein melting temperature was found to be 44.4 (Biolog plate: PM01), 45.7 (Biolog plate: PM03B) and 44.5 (Biolog plate: PM05).

On to `N[C@@H](CC(=O)O)C(=O)O` [L-Aspartic acid], for which the protein melting temperature by setting is: (Biolog plate: PM01) 44.5; (Biolog plate: PM03B) 45.4; (Biolog plate: PM05) 44.2.

Turning to `NC(=O)NCCC[C@H](N)C(=O)O` [L-Citrulline], the protein melting temperature is 44.8 (Biolog plate: PM03B) and 43.8 (Biolog plate: PM05).

Consider `N[C@@H](CS(=O)(=O)O)C(=O)O` [L-Cysteic acid], for which, for the setting “Biolog plate: PM04A”, the protein melting temperature stood at 43.1.

For `N[C@@H](CS(=O)O)C(=O)O` [L-Cysteine Sulfinic acid], the protein melting temperature (Biolog plate: PM04A) was determined as 43.

For `N[C@@H](CSCSC[C@H](N)C(=O)O)C(=O)O` [L-Djenkolic acid], the protein melting temperature (Biolog plate: PM04A) was found to be 44.6.

In the case of `C[C@H](O)[C@@H](O)[C@@H](O)[C@H](O)C=O` [L-Fucose], the protein melting temperature (Biolog plate: PM01) is 44.7.

For the compound `OC[C@@H]1OC(O)[C@@H](O)[C@H](O)[C@H]1O` (stereo partly drawn) [L-Glucose], the protein melting temperature (Biolog plate: PM02A) was 44.4.

Consider `N[C@@H](CCC(=O)O)C(=O)O` [L-Glutamic acid], for which the protein melting temperature reads like this: (Biolog plate: PM01) 44.2; (Biolog plate: PM03B) 44.8; (Biolog plate: PM05) 44.2.

With `NC(=O)CC[C@H](N)C(=O)O` [L-Glutamine], the protein melting temperature by setting is: (Biolog plate: PM01) 44; (Biolog plate: PM03B) 45.1; (Biolog plate: PM05) 44.9.

With `N[C@@H](Cc1c[nH]cn1)C(=O)O` [L-Histidine], the protein melting temperature (Biolog plate: PM02A) worked out at 44.7, the protein melting temperature (Biolog plate: PM03B) is 44.8 and the protein melting temperature (Biolog plate: PM05) was 44.6.

With `N[C@H]1CCOC1=O` [L-Homoserine Lactone], for the setting “Biolog plate: PM05”, the protein melting temperature worked out at 44.5.

As to `N[C@@H](CCO)C(=O)O` [L-Homoserine], the protein melting temperature amounted to 44.7 (Biolog plate: PM02A) and 44.8 (Biolog plate: PM03B).

For the compound `CC[C@H](C)[C@H](N)C(=O)O` [L-Isoleucine], the protein melting temperature (Biolog plate: PM02A) came to 44.3, the protein melting temperature (Biolog plate: PM03B) came to 44.8 and the protein melting temperature (Biolog plate: PM05) was 44.7.

With `CC(C)C[C@H](N)C(=O)O` [L-Leucine], the protein melting temperature (Biolog plate: PM02A) amounted to 44.3, the protein melting temperature (Biolog plate: PM03B) is 44.8 and the protein melting temperature (Biolog plate: PM05) was 44.6.

For the compound `O=C[C@H](O)[C@H](O)[C@@H](O)CO` [L-Lyxose], the protein melting temperature (Biolog plate: PM01) amounted to 44.7.

In the case of `O=C(O)C[C@H](O)C(=O)O` [L-Malic acid], the protein melting temperature (Biolog plate: PM01) came out at 44.3.

`CS(=O)(=O)CC[C@H](N)C(=O)O` [L-Methionine Sulfone]: the protein melting temperature (Biolog plate: PM04A) amounted to 43.9.

As to `C[S+]([O-])CC[C@H](N)C(=O)O` (stereo partly drawn) [L-Methionine Sulfoxide], the protein melting temperature (Biolog plate: PM04A) came out at 43.6.

On to `CSCC[C@H](N)C(=O)O` [L-Methionine], for which the protein melting temperature reads like this: (Biolog plate: PM02A) 43.5; (Biolog plate: PM03B) 44.7; (Biolog plate: PM04A) 43.9; (Biolog plate: PM05) 44.4.

With `NCCC[C@H](N)C(=O)O` [L-Ornithine], the protein melting temperature is, setting by setting: (Biolog plate: PM02A) 44.4; (Biolog plate: PM03B) 44.4; (Biolog plate: PM05) 44.7.

Consider `N[C@@H](Cc1ccccc1)C(=O)O` [L-Phenylalanine], for which the protein melting temperature (Biolog plate: PM02A) was found to be 44.5, the protein melting temperature (Biolog plate: PM03B) was 44.8 and the protein melting temperature (Biolog plate: PM05) was 43.8.

Turning to `O=C(O)[C@@H]1CCCN1` [L-Proline], the protein melting temperature reads like this: (Biolog plate: PM01) 44.3; (Biolog plate: PM03B) 45.1; (Biolog plate: PM05) 44.2.

For the compound `C[C@@H](O)[C@H](N)C(=O)O` [L-Threonine], the protein melting temperature by setting is: (Biolog plate: PM01) 44; (Biolog plate: PM03B) 44.8; (Biolog plate: PM05) 43.8.

`N[C@@H](Cc1c[nH]c2ccccc12)C(=O)O` [L-Tryptophan]: the protein melting temperature came to 44.4 (Biolog plate: PM03B) and 44 (Biolog plate: PM05).

In the case of `N[C@@H](Cc1ccc(O)cc1)C(=O)O` [L-Tyrosine], the protein melting temperature was 44.8 (Biolog plate: PM03B) and 43.9 (Biolog plate: PM05).

Take `CC(C)[C@H](N)C(=O)O` [L-Valine]: the protein melting temperature reads like this: (Biolog plate: PM02A) 44.5; (Biolog plate: PM03B) 45; (Biolog plate: PM05) 43.5.

As to `OC[C@@H](O)[C@@H](O[C@H]1O[C@H](CO)[C@@H](O)[C@H](O)[C@H]1O)[C@H](O)[C@@H](O)CO` [Maltitol], the protein melting temperature (Biolog plate: PM02A) stood at 44.5.

With `OC[C@H]1O[C@H](O[C@H]2[C@H](O)[C@@H](O)[C@@H](O[C@H]3[C@H](O)[C@@H](O)[C@@H](O)O[C@@H]3CO)O[C@@H]2CO)[C@H](O)[C@@H](O)[C@@H]1O` [Maltotriose], the protein melting temperature (Biolog plate: PM01) is 44.

On to `OC[C@H]1O[C@@H](O[C@H]2[C@H](O)[C@@H](O)[C@H](O[C@H]3[C@H](O)[C@H](O)[C@H](O[C@@H]4[C@H](O)[C@H](O)[C@H](O)O[C@@H]4CO)O[C@@H]3CO)O[C@@H]2CO)[C@@H](O)[C@@H](O)[C@@H]1O` [Mannan], for which the protein melting temperature (Biolog plate: PM02A) was determined as 44.8.

`O=C(O)[C@H](O)[C@@H](O)[C@H](O)[C@H](O)CO[C@H]1O[C@H](CO)[C@H](O)[C@H](O)[C@H]1O` [Melibionic acid]: for the setting “Biolog plate: PM02A”, the protein melting temperature was determined as 44.7.

Consider `CC1=CC(=O)c2ccccc2C1=O` [Menadione], for which, for the setting “Biolog plate: PM05”, the protein melting temperature is 42.6.

As to `CSCC[C@H](N)C(=O)N[C@@H](C)C(=O)O` [Met-Ala], the protein melting temperature (Biolog plate: PM03B) is 44.9.

Regarding `CS(=O)(=O)O` [Methane Sulfonic acid], the protein melting temperature (Biolog plate: PM04A) was 44.4.

Turning to `CN` [Methylamine], the protein melting temperature (Biolog plate: PM03B) was determined as 45.8.

In the case of `O=P(O)(O)CP(=O)(O)O` [Methylene Diphosphonic acid], the protein melting temperature (Biolog plate: PM04A) came to 44.

With `COC(=O)C(C)=O` [Methylpyruvate], where the note is “Biolog plate: PM01”, the protein melting temperature worked out at 44.9.

Take `COC(=O)CCC(=O)O` [Mono-Methylsuccinate]: the protein melting temperature (Biolog plate: PM01) came to 45.

For the compound `O=C(O)[C@@H](O)[C@H](O)[C@H](O)[C@@H](O)C(=O)O` [Mucic acid], for the setting “Biolog plate: PM01”, the protein melting temperature is 43.7.

On to `CC(=O)N[C@H]1C(O)O[C@H](CO)[C@H](O)[C@@H]1O` (stereo partly drawn) [N-Acetyl-D-Galactosamine], for which the protein melting temperature is 44.6 (Biolog plate: PM02A) and 44.6 (Biolog plate: PM03B).

`CC(=O)N[C@@H](CO)[C@@H](O)[C@H](O)[C@H](O)CO` [N-Acetyl-D-Glucosaminitol]: the protein melting temperature (Biolog plate: PM02A) amounted to 44.1.

For the compound `CC(=O)N[C@@H]1C(O)O[C@H](CO)[C@@H](O)[C@@H]1O` (stereo partly drawn) [N-Acetyl-D-Mannosamine], the protein melting temperature came to 44.8 (Biolog plate: PM01) and 45.5 (Biolog plate: PM03B).
